Source: PubChem BioAssay (NCI)
Where “and” joins values, the source holds several entries; their conditions need not be identical. Identical values can stand only once.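 Tested at 5 concentrations; 48 h exposure; 96-well plates; endpoints linearly interpolated, else capped at highest concentration. GI50 = concentration required for 50% inhibition of growth. At the TGI there is no net growth.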

Tests used:
Experiment in all cases: DTP human tumour cell line panel, 48 h
[1] = system: EKVX NSCLC
[2] = system: IGROV1 ovarian
[3] = system: NCI-H460 lung
[4] = system: NCI-H522 lung
[5] = system: OVCAR-3 ovarian
[6] = system: RXF 393 renal
[7] = system: SF-268 CNS
[8] = system: SW-620 colon
[9] = system: T-47D breast
[10] = system: UACC-257 melanoma

CCN1CCN(C(=O)[C@]23CC[C@@H](C)[C@H](C)[C@@H]2C2=CC[C@@H]4[C@@]5(C)CCC(=O)C(C)(C)[C@@H]5CC[C@@]4(C)[C@]2(C)CC3)CC1
GI50 [1]: 0.916 µM | TGI [1]: 2.42 µM | GI50 [2]: 1.4 µM | TGI [2]: 4.85 µM | GI50 [3]: 0.93 µM | TGI [3]: 1.75 µM | GI50 [4]: 831 nM | TGI [4]: 1.75 µM | GI50 [5]: 1.1 µM | TGI [5]: 2.44 µM | GI50 [6]: 822 nM | TGI [6]: 1.74 µM | GI50 [7]: 1770 nM | TGI [7]: 6.49 µM | GI50 [8]: 0.902 µM | TGI [8]: 1.76 µM | GI50 [9]: 1.33 µM | TGI [9]: 3.89 µM | GI50 [10]: 0.985 µM | TGI [10]: 2.19 µM

CN1C(=O)N(C)C2C1NC(=S)N2/N=C/C=C/c1ccccc1[N+](=O)[O-] (stereo not given)
GI50 [1]: 3.86 µM | TGI [1]: > 100 µM | GI50 [2]: 2.48 µM | TGI [2]: > 100 µM | GI50 [3]: 0.701 µM | TGI [3]: > 100 µM | GI50 [4]: 318 nM | TGI [4]: 9.65 µM | GI50 [5]: 0.344 µM | TGI [5]: > 100 µM | GI50 [6]: 2420 nM | TGI [6]: > 100 µM | GI50 [7]: 2670 nM | TGI [7]: > 100 µM | GI50 [8]: 0.596 µM | TGI [8]: > 100 µM | GI50 [9]: > 100 µM | TGI [9]: > 100 µM | GI50 [10]: > 100 µM | TGI [10]: > 100 µM

Cc1c(C(=O)Nc2ccc(N3C[C@@H](C)O[C@@H](C)C3)nc2)cccc1-c1ccc(OC(F)(F)F)cc1
GI50 [1]: 5.73 µM and 4.55 µM | TGI [1]: 28.4 µM and 34.2 µM | GI50 [2]: 9.63 µM and 11.6 µM | TGI [2]: 37.5 µM and 33.6 µM | GI50 [3]: 8.67 µM and 6.79 µM | TGI [3]: > 68.6 µM and 83.7 µM | GI50 [4]: 9140 nM and 10200 nM | TGI [4]: 33.9 µM and 34.9 µM | GI50 [5]: 6.23 µM and 5.13 µM | TGI [5]: 24 µM and 24.2 µM | GI50 [6]: 12300 nM and 13700 nM | TGI [6]: 29.2 µM and 32.1 µM | GI50 [7]: 7220 nM and 5250 nM | TGI [7]: 28.9 µM and 25.9 µM | GI50 [8]: 10.6 µM and 13.9 µM | TGI [8]: > 88.4 µM and 93.3 µM | GI50 [9]: 2.69 µM and 2.41 µM | TGI [9]: 25.2 µM and 17.6 µM | GI50 [10]: 10.7 µM and 12.6 µM | TGI [10]: 38 µM and 74.7 µM

CCC[CH2][Sn]1([CH2]CCC)[O]C(=O)c2cccc([N+](=O)[O-])c2C(=O)[O]1
GI50 [2]: 0.89 µM | TGI [2]: 2.38 µM | GI50 [3]: 1.66 µM | TGI [3]: 3.57 µM | GI50 [4]: 71.1 nM | TGI [4]: 0.217 µM | GI50 [5]: 1.06 µM | TGI [5]: 2.3 µM | GI50 [6]: 270 nM | TGI [6]: 0.783 µM | GI50 [7]: 431 nM | TGI [7]: 1.65 µM | GI50 [8]: 0.171 µM | TGI [8]: 0.54 µM | GI50 [9]: 0.0604 µM | TGI [9]: 0.27 µM | GI50 [10]: 0.292 µM | TGI [10]: 1.19 µM

COc1cc2c(cc1OC)C(Cl)C(c1ccc(Br)cc1)=C2Cl (stereo not given)
TGI [1]: 17.2 µM | TGI [2]: 31.8 µM | TGI [3]: 25.8 µM | TGI [4]: 12.8 µM | TGI [5]: 24.1 µM | TGI [6]: 24.6 µM | TGI [7]: 29.4 µM | TGI [8]: 23.4 µM | TGI [9]: 15.1 µM | TGI [10]: 31.6 µM

COc1c(C(N)=O)cc(-c2ccc(Cl)cc2)cc1-c1ccc(S(N)(=O)=O)cc1
GI50 [1]: 8.91 µM | TGI [1]: > 25 µM | GI50 [2]: 10.4 µM | TGI [2]: > 25 µM | GI50 [3]: 11.5 µM | TGI [3]: > 25 µM | GI50 [4]: 8110 nM | TGI [4]: > 20.8 µM | GI50 [5]: 9.79 µM | TGI [5]: > 25 µM | GI50 [6]: 7880 nM | TGI [6]: > 25 µM | GI50 [7]: 8810 nM | TGI [7]: > 25 µM | GI50 [8]: 12 µM | TGI [8]: > 25 µM | GI50 [9]: 9.71 µM | TGI [9]: > 25 µM | GI50 [10]: 8.72 µM | TGI [10]: > 25 µM

CC(=O)OC1CC2(C)C(=CC1C1SCCS1)CCC1C2CCC2(C)C(OC(C)=O)CCC12 (stereo not given)
TGI [1]: > 100 µM | TGI [2]: > 100 µM | TGI [3]: > 100 µM | TGI [4]: > 100 µM | TGI [5]: > 100 µM | TGI [6]: 67.3 µM | TGI [7]: > 100 µM | TGI [8]: > 100 µM | TGI [9]: > 100 µM | TGI [10]: > 100 µM

CC1=C(CCC(C)CO)O[C@H]2C[C@H]3[C@@H]4CC[C@H]5C[C@@H](O)CC[C@]5(C)[C@H]4CC(=O)[C@]3(C)[C@@H]12 (stereo not given in full)
TGI [1]: > 90.2 µM | TGI [2]: 55 µM | TGI [3]: 21.8 µM | TGI [4]: 30.3 µM | TGI [5]: > 60.9 µM | TGI [6]: 73.8 µM | TGI [7]: 57.6 µM | TGI [8]: > 100 µM | TGI [9]: 29.2 µM | TGI [10]: 36.6 µM

O=C(Nc1cccc([N+](=O)[O-])c1)c1cccc(C(=O)Nc2cccc([N+](=O)[O-])c2)c1
GI50 [1]: > 59.9 µM | TGI [1]: > 100 µM | GI50 [2]: 33.9 µM | TGI [2]: > 100 µM | GI50 [3]: > 61.9 µM | TGI [3]: > 100 µM | GI50 [4]: 3320 nM | TGI [4]: > 100 µM | GI50 [5]: > 100 µM | TGI [5]: > 100 µM | GI50 [6]: 14700 nM | TGI [6]: 38.8 µM | GI50 [7]: 5220 nM | TGI [7]: > 100 µM | GI50 [8]: > 100 µM | TGI [8]: > 100 µM | GI50 [9]: 56.9 µM | TGI [9]: > 100 µM | GI50 [10]: > 100 µM | TGI [10]: > 100 µM

CC1Cc2c(Cl)ncnc2N(C)c2ccccc21 (stereo not given)
GI50 [1]: 3.13 µM | TGI [1]: > 100 µM | GI50 [2]: 3.78 µM | TGI [2]: > 100 µM | GI50 [3]: 3.87 µM | TGI [3]: > 100 µM | GI50 [4]: 1760 nM | TGI [4]: 3.7 µM | GI50 [5]: 3.4 µM | TGI [5]: 20.1 µM | GI50 [6]: 2570 nM | TGI [6]: 6.05 µM | GI50 [7]: 2770 nM | TGI [7]: 91.6 µM | GI50 [8]: 3.08 µM | TGI [8]: 11.2 µM | GI50 [9]: 4.29 µM | TGI [9]: 37.4 µM | GI50 [10]: 3.76 µM | TGI [10]: 21 µM

C[C@]12CC[C@H]3[C@@H](CC[C@]4(O)C[C@@H](O)CC[C@]34C=O)[C@@]1(O)CC[C@@H]2C1=CC(=O)OC1
TGI [1]: 1.3 µM | TGI [2]: 19.6 µM | TGI [3]: 0.591 µM | TGI [4]: 1.4 µM | TGI [5]: 1.55 µM | TGI [6]: 0.877 µM | TGI [7]: 2 µM | TGI [8]: 2.79 µM | TGI [9]: 5.03 µM | TGI [10]: 2.5 µM

Nc1nc(-c2ccc3c(c2)/C(=C\c2cc(Br)c(O)c(Br)c2)C(=O)N3)cs1
GI50 [1]: > 25 µM | TGI [1]: > 25 µM | GI50 [2]: > 25 µM | TGI [2]: > 25 µM | GI50 [3]: 16.4 µM | TGI [3]: > 25 µM | GI50 [4]: 8120 nM | TGI [4]: 19.4 µM | GI50 [5]: 8.14 µM | TGI [5]: 20.4 µM | GI50 [6]: 12500 nM | TGI [6]: > 25 µM | GI50 [7]: 16300 nM | TGI [7]: > 25 µM | GI50 [8]: 10.6 µM | TGI [8]: > 25 µM | GI50 [9]: 15.1 µM | TGI [9]: > 25 µM | GI50 [10]: 5.57 µM | TGI [10]: 14.4 µM

O=C1/C=C/[C@@H](O)[C@@H]2C[C@@H](O)C[C@H]2/C=C/CCC[C@H](CCO)O1
GI50 [1]: 0.253 µM | TGI [1]: > 100 µM | GI50 [2]: 0.382 µM | TGI [2]: > 100 µM | GI50 [3]: 0.382 µM | TGI [3]: > 100 µM | GI50 [4]: 211 nM | TGI [4]: 0.604 µM | GI50 [5]: 0.193 µM | TGI [5]: 0.5 µM | GI50 [6]: 27.2 nM | TGI [6]: 0.117 µM | GI50 [7]: 78.2 nM | TGI [7]: > 73 µM | GI50 [8]: 0.216 µM | TGI [8]: 0.646 µM | GI50 [9]: 0.239 µM | TGI [9]: 0.804 µM | GI50 [10]: 0.0609 µM | TGI [10]: > 100 µM

COc1cccc(N2CC(O)=C(c3nc4ccccc4s3)C2=N)c1
GI50 [1]: 9.24 µM | TGI [1]: > 100 µM | GI50 [2]: 0.277 µM | TGI [2]: > 75.6 µM | GI50 [3]: 0.24 µM | TGI [3]: > 100 µM | GI50 [4]: 58.8 nM | GI50 [5]: 0.269 µM | TGI [5]: 0.82 µM | GI50 [6]: 488 nM | TGI [6]: 45.1 µM | GI50 [7]: 1510 nM | TGI [7]: > 94.5 µM | GI50 [8]: 0.341 µM | TGI [8]: > 100 µM | GI50 [9]: 46.5 µM | TGI [9]: > 100 µM
